Measured values published in patent US10179914B2, “CDC25A inhibitor for the treatment of drug resistant cancer or for the prevention of tumor relapse” (INSERM (INSTITUT NATIONAL DE LA SANTÉ ET DE LA RECHERCHE …, priority 2014, dated 2019).

Key:
Format in all cases: cell-based, human
[1] = tested on: FLT3-ITD primary AML cells from patients; assay: Differentiation of FLT3-ITD primary AML samples
Procedure: (a) 4 primary samples from patients carrying the FLT3-ITD mutation (ITD #1-4) were treated for 6 days with IRC-083864 (100 nM), and the expression of CD14 (upper panel) and CD15 (lower panel) was followed by flow cytometry analysis. (b) Quantification (mean±SEM, n=4) of CD14 and CD15 expression in response to IRC-083864. (c) The morphology of primary cells from patients used in (a) was analyzed by microscopy after 6 days and 9 days of treatment with IRC-083864. Original magnification ×100.
Patient samples. Patient AML samples were obtained after informed consent in accordance with the Declaration of Helsinki and stored at the HIMIP collection. According to the French law, HIMIP collection has been declared to the Ministry of Higher Education and Research (DC 2008-307 collection 1) and obtained a transfer agreement (AC 2008-129) after approbation by ethical committees (Comité de Protection des Personnes Sud-Ouest et Outremer II and APHP ethical committee). […]
Flow cytometry. Apoptotic cells were detected with Annexin V-FITC detection kit from BD Pharmingen (San Diego, Calif., USA) according to the manufacturer instructions. […] Data were collected on a LSRII or a LSRFortessa cytometer (BD Biosciences), and analyzed with FlowJo software. […]

[2] = tested on: HL-60 cells (FLT3 wild type); assay: Cell proliferation, trypan blue counting, HL-60
Procedure: (a) MV4-11 and MOLM-14 FLT3-ITD positive cells, KG1, HL-60 and TF-1 FLT3 wild type cells, and K562 FLT3 negative cells were cultured in the presence of the CDC25 inhibitor IRC-083864 (200 nM). Cells were harvested each day and counted after trypan blue coloration. The graph represents three independent experiments.
Cell lines and reagents. Human acute myeloid leukemia cell lines MOLM-14 (Matsuo Y et al, Leukemia 1997) (kindly provided by Martin Carroll, University of Pennsylvania, Philadelphia, Pa., USA) MV4-11, K562 (ACC-102 and ACC-10, DSMZ, Braunschweig, Germany) and FLT3-ITD-expressing murine BaF3 cells were cultured in RPMI 1640 medium (Gibco, Life Technologies, Carlsbad, Calif., USA) supplemented with 10% fetal bovine serum (Sigma, Saint Louis, Calif., USA). TF-1 (ATCC-CRL2003) cells were cultured in RPMI 1640 medium with 10% fetal bovine serum and GM-CSF 2 ng/ml. Concerning MOLM-14 cell line, the presence of a monoallelic 21 bp FLT3-ITD mutation and of an MLL-containing ins(11; 9)(q23;p22p23) were verified (Hematology laboratory of Toulouse University Hospital, Prof E. Delabesse and Dr I. Luquet). KG1 and HL-60 (ACC-14 and ACC-3, DSMZ) cell lines were grown in Iscove's Modified Dulbecco's Medium (IMDM, Gibco) plus 20% FBS. All cells were grown in the presence of 100 units/ml of penicillin and streptomycin (Invitrogen) at 37° C. and 5% CO2.

[3] = tested on: MOLM-14 cells (FLT3-ITD positive); assay: Cell proliferation, trypan blue counting, MOLM-14; settings: 200 nM
Procedure: Cells were harvested each day and counted after trypan blue staining. The graphs represent three independent experiments.
Cell lines and reagents. […] Concerning MOLM-14 cell line, the presence of a monoallelic 21 bp FLT3-ITD mutation and of an MLL-containing ins(11; 9)(q23;p22p23) were verified (Hematology laboratory of Toulouse University Hospital, Prof E. Delabesse and Dr I. Luquet). KG1 and HL-60 (ACC-14 and ACC-3, DSMZ) cell lines were grown in Iscove's Modified Dulbecco's Medium (IMDM, Gibco) plus 20% FBS. All cells were grown in the presence of 100 units/ml of penicillin and streptomycin (Invitrogen) at 37° C. and 5% CO2.
siRNA. The MV4-11 cell line was transfected with the Amaxa nucleofection technology (Lonza, Koeln, Germany). […] Twenty-four or forty-eight hours after transfection, cells were counted (trypan blue staining), and western blotting was performed.

Cc1nc2c(s1)C(=O)C=C(NCCCN(C)CCCNC1=CC(=O)c3nc(-c4cc(F)ccc4F)oc3C1=O)C2=O [IRC-083864]
expression of CD14 ([1]; 100 nM, 6 days): increased
morphology of primary cells ([1]; days 6 and 9): monocytic-like morphological nuclear changes
proliferation of HL-60 ([2]; 200 nM): did not decrease
proliferation of HL60 upon stimulation by FLT3 ligand ([2]; FLT3 ligand stimulation): had no effect
proliferation of MOLM-14 [3]: robust inhibition
